Data as given in PMC2063322, “Phase I trial and pharmacokinetics of the tubulin inhibitor 1069C85--a synthetic agent binding at the colchicine site designed to overcome multidrug resistance” (British Journal of Cancer, 1997).
“And” between values parts separate entries of the source, which are not always exact repeats. Identical values can stand only once.

Assays:
[1] = Protein binding in human plasma (Amicon membrane centrifugation); conditions: 25 C
Experimental: (§1) British Joumal of Cancer (1997) 75(4), 608-613 ? […] A phase I study was performed using a single oral dose every 3 weeks, administered as a suspension reconstituted in 0.1% Tween 80 and 0.9% saline. The starting dose was 2.8 mg m-2, and dose doubling was permitted until the area under curve (AUC) was ?40% of that at the mouse LD10; thereafter, a modified Fibonacci scheme was used. […] Keywords: tubulin; multidrug resistance; neurotoxicity The tubulin-binding agent 1069C85 was developed from a struc- ture activity investigation of tubulin inhibitors binding at the colchicine site on tubulin. […] No studies were performed using human tumour xenografts. […] METHODS Formulation and drug administration A formulation was developed at the Cancer Research Campaign Formulation Unit. The drug was dispensed into vials as a dry powder and reconstituted as a fine suspension by administration of 0.9% saline containing 0.1% Tween 80 (polysorbate) with vigorous mixing. Immediately before oral administration, the drug suspension was mixed with orange juice both to disguise any possible unpleasant taste and to help ensure complete ingestion.

[2] = Phase I pharmacokinetics: plasma 1069C85 by HPLC after single oral dose; parameters: Cmax of the patient experiencing grade 3 neurotoxicity: unit not given beside the values
Experimental: as §1

[3] = micronized, 25 mg m-2, mean (SD), 5 patients
[4] = micronized, 35.8 mg m-2, 1 patient
[5] = micronized, 50 mg m-2, mean, 2 patients
[6] = micronized, 100 mg m-2, mean, 2 patients previously treated at 200 mg m-2 standard formulation
[7] = non-micronized, 2.8 mg m-2, mean (SD), 3 patients
[8] = non-micronized, 5.6 mg m-2, mean, 2 patients
[9] = non-micronized, 11.2 mg m-2, mean (SD), 4 patients
[10] = non-micronized, 22.4 mg m-2, mean (SD), 3 patients
[11] = non-micronized, 35.8 mg m-2, mean (SD), 4 patients
[12] = non-micronized, 50 mg m-2, mean, 2 patients
[13] = non-micronized, 100 mg m-2, mean (SD), 4 patients
[14] = non-micronized, 200 mg m-2, mean (SD), 4 patients
[15] = single patient (no. 39), 50 mg m-2 micronized
[16] = single patient, 100 mg m-2 micronized, ataxia, confusion, hallucinations, coma
[17] = single patient, 100 mg m-2 micronized, vivid dreams, disturbed sleep
[18] = single patient, 200 mg m-2 non-micronized, ataxia, confusion, disorientation
[19] = single patient, 200 mg m-2 non-micronized, visual disturbance, flashing lights

**Q.** For COC(=O)Nc1cn2nc(OCc3cc(OC)c(OC)c(OC)c3)ccc2n1 [1069C85], which Protein binding [1] is on record?
**A.** Its Protein binding is greater than 99%.

**Q.** And the “Cmax of the patient experiencing grade 3 neurotoxicity” value ([2]; 200 mg m-2, non-micronized)?
**A.** The value was 159.

**Q.** And the AUC [2, 3]?
**A.** Its AUC is 1061.8 (?269.1) gg 1-1 h-1.

**Q.** What about the Cmax [2, 3] of the same compound?
**A.** Its Cmax is 58.6 (?19.5) hg 1-'.

**Q.** And the Tmax [2, 3]?
**A.** The Tmax was 9.8 (?3.2) h.

**Q.** And the t1/2 [2, 3]?
**A.** The t1/2 was 38.9 (?36.9) h.

**Q.** What about the AUC [2, 4] of the same compound?
**A.** Its AUC is 1262.3 gg 1-1 h-1.

**Q.** And the Cmax [2, 4]?
**A.** Its Cmax is 70.7 hg 1-'.

**Q.** What about the Tmax [2, 4] of the same compound?
**A.** The Tmax was 6.3 h.

**Q.** What about the t1/2 [2, 4] of the same compound?
**A.** Its t1/2 is 16.3 h.

**Q.** And the AUC [2, 5]?
**A.** Its AUC is 3786.9 gg 1-1 h-1.

**Q.** What about the Cmax [2, 5] of the same compound?
**A.** Its Cmax is 198.9 hg 1-'.

**Q.** What about the Tmax [2, 5] of the same compound?
**A.** Its Tmax is 10.6 h.

**Q.** And the t1/2 [2, 5]?
**A.** Its t1/2 is 24 h.

**Q.** What about the AUC [2, 6] of the same compound?
**A.** Its AUC is 15011.7 gg 1-1 h-1.

**Q.** What about the Cmax [2, 6] of the same compound?
**A.** Its Cmax is 292.3 hg 1-'.

**Q.** And the Tmax [2, 6]?
**A.** The Tmax was 6.1 h.

**Q.** And the t1/2 [2, 6]?
**A.** The t1/2 was 24.7 h.

**Q.** And the “time after dosing at which drug was still detectable in the cerebrospinal fluid” value ([2]; most severely affected patient, 100 mg m-2 micronized)?
**A.** The value was 8 days and 7 days.

**Q.** What about the “terminal half-life (range between patients)” value ([2]; non-micronized formulation, one-compartment model) of the same compound?
**A.** Its value is 7 to 107 h.

**Q.** And the Cmax [2, 7]?
**A.** The Cmax was 7.3 (?3.4) hg 1-'.

**Q.** And the Tmax [2, 7]?
**A.** The Tmax was 10 (?7.1) h.

**Q.** And the t1/2 [2, 7]?
**A.** Its t1/2 is 29 (+22) h.

**Q.** And the AUC ([2]; non-micronized, 2.8 mg m-2 single oral dose, mean (SD), 3 patients, AUC to 24 h)?
**A.** Its AUC is 69.9 (?30.2) gg 1-1 h-1.

**Q.** What about the AUC [2, 8] of the same compound?
**A.** The AUC was 209.7 gg 1-1 h-1.

**Q.** And the Cmax [2, 8]?
**A.** Its Cmax is 13 hg 1-'.

**Q.** What about the Tmax [2, 8] of the same compound?
**A.** The Tmax was 9.5 h.

**Q.** What about the t1/2 [2, 8] of the same compound?
**A.** The t1/2 was 39.5 h.

**Q.** What about the AUC [2, 9] of the same compound?
**A.** The AUC was 371.5 (?178.7) gg 1-1 h-1.

**Q.** What about the Cmax [2, 9] of the same compound?
**A.** Its Cmax is 21.7 (?11.3) hg 1-'.

**Q.** And the Tmax [2, 9]?
**A.** Its Tmax is 5.3 (?1.2) h.

**Q.** What about the t1/2 [2, 9] of the same compound?
**A.** Its t1/2 is 23.2 (?6.9) h.

**Q.** What about the AUC [2, 10] of the same compound?
**A.** Its AUC is 476.4 (?206.8) gg 1-1 h-1.

**Q.** And the Cmax [2, 10]?
**A.** Its Cmax is 25.9 (?11.4) hg 1-'.

**Q.** And the Tmax [2, 10]?
**A.** Its Tmax is 7.6 (?1.9) h.

**Q.** What about the t1/2 [2, 10] of the same compound?
**A.** Its t1/2 is 35.7 (?15.1) h.

**Q.** What about the AUC [2, 11] of the same compound?
**A.** The AUC was 507.5 (?153.6) gg 1-1 h-1.

**Q.** What about the Cmax [2, 11] of the same compound?
**A.** Its Cmax is 33 (?13.9) hg 1-'.

**Q.** What about the Tmax [2, 11] of the same compound?
**A.** Its Tmax is 7.8 (?3.4) h.

**Q.** What about the t1/2 [2, 11] of the same compound?
**A.** The t1/2 was 22.9 (?19.5) h.

**Q.** What about the AUC [2, 12] of the same compound?
**A.** Its AUC is 423.3 gg 1-1 h-1.

**Q.** And the Cmax [2, 12]?
**A.** Its Cmax is 22 hg 1-'.

**Q.** And the Tmax [2, 12]?
**A.** The Tmax was 7.2 h.

**Q.** And the t1/2 [2, 12]?
**A.** The t1/2 was 73.5 h.

**Q.** What about the AUC [2, 13] of the same compound?
**A.** Its AUC is 844.7 (?314.7) gg 1-1 h-1.

**Q.** What about the Cmax [2, 13] of the same compound?
**A.** Its Cmax is 48.5 (?25) hg 1-'.

**Q.** And the Tmax [2, 13]?
**A.** The Tmax was 4.8 (?1.1) h.

**Q.** And the t1/2 [2, 13]?
**A.** The t1/2 was 23 (?4.3) h.

**Q.** What about the AUC [2, 14] of the same compound?
**A.** Its AUC is 3011 (?1771.4) gg 1-1 h-1.

**Q.** What about the Cmax [2, 14] of the same compound?
**A.** Its Cmax is 99.8 (?36.9) hg 1-'.

**Q.** And the Tmax [2, 14]?
**A.** Its Tmax is 8.8 (?1.9) h.

**Q.** What about the t1/2 [2, 14] of the same compound?
**A.** Its t1/2 is 18.2 (?3) h.

**Q.** What about the “terminal elimination half-life (range)” value ([2]; original formulation, single oral dose every 3 weeks, patients) of the same compound?
**A.** Its value is 18 to 73.5 h.

**Q.** And the AUC [2, 15]?
**A.** Its AUC is 16.4 ItM h.

**Q.** What about the Cmax [2, 15] of the same compound?
**A.** The Cmax was 327 .g l-i.

**Q.** What about the AUC [2, 16] of the same compound?
**A.** Its AUC is 23.4 ItM h.

**Q.** And the Cmax [2, 16]?
**A.** Its Cmax is 495 .g l-i.

**Q.** What about the AUC [2, 17] of the same compound?
**A.** Its AUC is 53.9 ItM h.

**Q.** And the Cmax [2, 17]?
**A.** Its Cmax is 90 .g l-i.

**Q.** What about the AUC [2, 18] of the same compound?
**A.** Its AUC is 15.2 ItM h.

**Q.** What about the Cmax [2, 18] of the same compound?
**A.** The Cmax was 159 .g l-i.

**Q.** What about the AUC [2, 19] of the same compound?
**A.** Its AUC is 5.1 ItM h.

**Q.** And the Cmax [2, 19]?
**A.** The Cmax was 100 .g l-i.
